Data published in patent publication US20120245135A1, “Gallium Complexes, Pharmaceutical Compositions And Methods Of Use” (Genta Incorporated, priority 2011, published 2012).

Assay: Oral bioavailability of gallium complexes in dogs (plasma gallium by ICP-MS)
Conditions: for blood levels of gallium reached (peak blood concentration of gallium) / maximum blood concentration of gallium achieved: 2.5 mg/kg; for blood levels of gallium reached by oral controls: oral positive control (all three dogs) and oral negative control (highest value, one animal), Beagle dogs
Protocol: Pharmacokinetics, oral bioavailability and bioequivalency of gallium-ligand complexes according to the invention were determined in dogs following a single oral gavage administration of the compounds as a suspension/solution in water in fasted male Beagle dogs at 2.5 mg/kg dog body weight or following administration of a single total dose of 30 mg in a capsule formulation (for histidine and carnosine only). The following complexes were selected for testing: gallium picolinate, gallium kojate, gallium (+)-mandalate, gallium (−)-mandalate, gallium tryptophanate, gallium acetyl piperidinate, gallium prolinate both neutral and ionic; and the capsules prepared from histidine and carnosine. Each compound was studied in groups of three fasted animals. Nine serial blood samples were collected from each animal by venipuncture of a jugular vein at the following time points post-dose: 0 (predose), 0.25, 0.5, 0.75, 1, 2, 4, 8, and 16 hours post-dose. Blood samples were collected into chilled tubes containing heparin as the anticoagulant.
Oral bioavailability of the test gallium complex was evaluated in each of the three animals in each test group.

[1] = single oral gavage, suspension/solution in water, fasted male Beagle dogs

O=C1[O][Ga-3]23([O]C(=O)[C@H](c4ccccc4)[OH+]2)([O]C(=O)[C@H](c2ccccc2)[OH+]3)[OH+]C1c1ccccc1 (stereo partly drawn) [gallium (+)-mandalate]
blood levels of gallium reached (peak blood concentration of gallium) (male, Beagle, dog, in vivo, po): at least 1,000 ng/ml

O=C1[O][Ga-3]23([O]C(=O)[C@@H](c4ccccc4)[OH+]2)([O]C(=O)[C@@H](c2ccccc2)[OH+]3)[OH+]C1c1ccccc1 (stereo partly drawn) [gallium (−)-mandalate]
blood levels of gallium reached (peak blood concentration of gallium) (male, Beagle, dog, in vivo, po): at least 1,000 ng/ml

CC1=[O+][Ga-3]23([O]C(=O)C4CCCCN14)([O]C(=O)C1CCCCN1C(C)=[O+]2)[O]C(=O)C1CCCCN1C(C)=[O+]3 (stereo not drawn) [gallium acetyl piperidinate complex]
maximum blood concentration of gallium achieved (male, Beagle, dog, in vivo, po): about 200 ng/ml

OCC1=CC2=[O+][Ga-3]34([O]C2=CO1)([O]C1=COC(CO)=CC1=[O+]3)[O]C1=COC(CO)=CC1=[O+]4 [gallium kojate]
blood levels of gallium reached (peak blood concentration of gallium) (male, Beagle, dog, in vivo, po): at least 1,000 ng/ml

Cc1occc(=O)c1[O-].Cc1occc(=O)c1[O-].Cc1occc(=O)c1[O-].[Ga+3] [gallium maltolate, reference compound]
blood levels of gallium reached by oral controls: ≥ 1,000 ng/ml

O=[N+]([O-])[O-].O=[N+]([O-])[O-].O=[N+]([O-])[O-].[Ga+3] [gallium nitrate, reference compound]
blood levels of gallium reached by oral controls: ≤ 700 ng/mL

O=C1[O][Ga-3]23([O]C(=O)c4cccc[n+]42)([O]C(=O)c2cccc[n+]23)[n+]2ccccc21 [gallium picolinate]
blood levels of gallium reached (peak blood concentration of gallium) (male, Beagle, dog, in vivo, po): at least 1,000 ng/ml

O=C([O-])C1CCCN1.O=C([O-])C1CCCN1.O=C([O-])C1CCCN1.[Ga+3] (stereo not drawn) [gallium prolinate neutral complex]
maximum blood concentration of gallium achieved [1]: about 300 ng/ml

N[C@@H](Cc1c[nH]c2ccccc12)C(=O)[O-].N[C@@H](Cc1c[nH]c2ccccc12)C(=O)[O-].N[C@@H](Cc1c[nH]c2ccccc12)C(=O)[O-].[Ga+3] [gallium tryptophanate complex]
maximum blood concentration of gallium achieved [1]: about 500 ng/ml
